Measured values from ChEMBL document CHEMBL1201862, “PubChem BioAssay data set” (2004).
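In this assay, cells in 96-well plates receive the compound at five concentrations for 48 hours. Endpoints are linearly interpolated between the surrounding concentrations. At the GI50, growth is halved.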 Activity calls are given as the source filed them. Cut-off read from the data, not from the text of the source: active = GI50 up to about 1.1 µM and inactive = higher.

Assays:
Test in all cases: DTP human tumour cell line panel, 48 h
HOP-92 = system: HOP-92
NCI-H23 = system: NCI-H23
OVCAR-3 = system: OVCAR-3
SNB-75 = system: SNB-75
NCI-H522 = system: NCI-H522
ACHN = system: ACHN
SK-MEL-2 = system: SK-MEL-2
MOLT-4 = system: MOLT-4
KM-20L2 = system: KM-20L2
HCC 2998 = system: HCC 2998
RPMI-8226 = system: RPMI-8226
UACC-62 = system: UACC-62
COLO 205 = system: COLO 205
NCI-H460 = system: NCI-H460
SW-620 = system: SW-620
IGROV-1 = system: IGROV-1
LOX IMVI = system: LOX IMVI
XF498 = system: XF498
RXF 631 = system: RXF 631
M14 = system: M14
786-0 = system: 786-0
K562 = system: K562
Malme-3M = system: Malme-3M
SF-295 = system: SF-295
A549 = system: A549
OVCAR-4 = system: OVCAR-4
SNB-19 = system: SNB-19
SN12C = system: SN12C
NCI-H226 = system: NCI-H226
KM12 = system: KM12
SK-MEL-28 = system: SK-MEL-28
HCT-15 = system: HCT-15
DLD-1 = system: DLD-1
HCT-116 = system: HCT-116
SF-539 = system: SF-539
SF-268 = system: SF-268
SNB-78 = system: SNB-78
U-251 = system: U-251
LXFL 529 = system: LXFL 529
HL-60 = system: HL-60
UO-31 = system: UO-31
UACC-257 = system: UACC-257
SK-OV-3 = system: SK-OV-3
HT-29 = system: HT-29
CAKI-1 = system: CAKI-1
DMS-273 = system: DMS-273
TK-10 = system: TK-10
OVCAR-8 = system: OVCAR-8
OVCAR-5 = system: OVCAR-5
HOP-62 = system: HOP-62

Compound: COc1ccc(C2=NN(C(=O)COc3ccc(Cl)cc3)C(O)(c3ccc(Cl)cc3)C2)cc1 (stereo not given)
- GI50 (HOP-92): > 100 µM (inactive)
- GI50 (NCI-H23): 36.1 µM (inactive)
- GI50 (OVCAR-3): > 100 µM (inactive)
- GI50 (SNB-75): > 100 µM (inactive)
- GI50 (NCI-H522): > 100 µM (inactive)
- GI50 (ACHN): > 100 µM (inactive)
- GI50 (SK-MEL-2): > 100 µM (inactive)
- GI50 (MOLT-4): > 100 µM (inactive)
- GI50 (KM-20L2): > 100 µM (inactive)
- GI50 (HCC 2998): > 100 µM (inactive)
- GI50 (RPMI-8226): > 100 µM (inactive)
- GI50 (UACC-62): > 100 µM (inactive)
- GI50 (COLO 205): > 100 µM (inactive)
- GI50 (NCI-H460): > 100 µM (inactive)
- GI50 (SW-620): > 100 µM (inactive)
- GI50 (IGROV-1): > 100 µM (inactive)
- GI50 (LOX IMVI): > 100 µM (inactive)
- GI50 (XF498): > 100 µM (inactive)
- GI50 (RXF 631): > 100 µM (inactive)
- GI50 (M14): > 100 µM (inactive)
- GI50 (786-0): > 100 µM (inactive)
- GI50 (K562): > 100 µM (inactive)
- GI50 (Malme-3M): > 100 µM (inactive)
- GI50 (SF-295): > 100 µM (inactive)
- GI50 (A549): > 100 µM (inactive)
- GI50 (OVCAR-4): > 100 µM (inactive)
- GI50 (SNB-19): > 100 µM (inactive)
- GI50 (SN12C): > 100 µM (inactive)
- GI50 (NCI-H226): > 100 µM (inactive)
- GI50 (KM12): > 100 µM (inactive)
- GI50 (SK-MEL-28): > 100 µM (inactive)
- GI50 (HCT-15): > 100 µM
- GI50 (DLD-1): > 100 µM (inactive)
- GI50 (HCT-116): > 100 µM (inactive)
- GI50 (SF-539): > 100 µM (inactive)
- GI50 (SF-268): > 100 µM (inactive)
- GI50 (SNB-78): 66.5 µM (inactive)
- GI50 (U-251): > 100 µM (inactive)
- GI50 (LXFL 529): > 100 µM (inactive)
- GI50 (HL-60): > 100 µM (inactive)
- GI50 (UO-31): > 100 µM (inactive)
- GI50 (UACC-257): > 100 µM (inactive)
- GI50 (SK-OV-3): > 100 µM (inactive)
- GI50 (HT-29): > 100 µM (inactive)
- GI50 (CAKI-1): > 100 µM (inactive)
- GI50 (DMS-273): > 100 µM (inactive)
- GI50 (TK-10): > 100 µM (inactive)
- GI50 (OVCAR-8): > 100 µM (inactive)
- GI50 (OVCAR-5): > 100 µM (inactive)
- GI50 (HOP-62): > 100 µM (inactive)
